Values of other authors, collected in US20040175342A1, “Process of making and using composition containing oxidation-sensitive hydrophilic active principle and maleic anhydride copolymer” (L'OREAL, priority 2002, published 2004).

Assays:
[1] = test system: reconstructed epidermides; conditions: after treatment
[2] = test system: reconstructed epidermides
[3] = test system: keratinocytes

| Structure (SMILES) | barrier function of reconstructed epidermides [1] | synthesis of ceramides [2] | effect on differentiation of keratinocytes [3] | bioavailability |
| --- | --- | --- | --- | --- |
| O=C1O[C@H]([C@@H](O)CO)C(O)=C1O [Ascorbic acid, ascorbic acid] | improved | increase | prodifferentiating effect |  |
| O=C1O[C@H]([C@@H](O)CO)C(O)=C1O[C@H]1O[C@H](CO)[C@@H](O)[C@H](O)[C@H]1O [ascorbyl glucoside] |  | this effect has also been demonstrated |  |  |
| O=C1O[C@H]([C@@H](O)CO)C([O-])=C1OP(=O)([O-])[O-].O=C1O[C@H]([C@@H](O)CO)C([O-])=C1OP(=O)([O-])[O-].[Mg+2].[Mg+2].[Mg+2] [magnesium ascorbyl phosphate] |  | this effect has also been demonstrated |  | very low |
